Test results from paper PMC3260207, “Site-Directed Mutations and the Polymorphic Variant Ala160Thr in the Human Thromboxane Receptor Uncover a Structural Role for Transmembrane Helix 4” (PLoS ONE, 2012).
Residue numbers refer to the chain shown, from its start.

Key:
[1] = biological target: T1, TP A160T mutant (nsSNP variant) (Homo sapiens, UniProt P21731, A160T); test: Reversal of basal (agonist-independent) calcium mobilization in transfected HEK293T cells; assay type: cell-based; details: HEK293T cells pre-treated with 1 µM unlabelled SQ 29,548, p<0.05
T1 construct: expressed in transfected cells; HEK293T (calcium assays)
T1 sequence (P21731 1-343 A160T): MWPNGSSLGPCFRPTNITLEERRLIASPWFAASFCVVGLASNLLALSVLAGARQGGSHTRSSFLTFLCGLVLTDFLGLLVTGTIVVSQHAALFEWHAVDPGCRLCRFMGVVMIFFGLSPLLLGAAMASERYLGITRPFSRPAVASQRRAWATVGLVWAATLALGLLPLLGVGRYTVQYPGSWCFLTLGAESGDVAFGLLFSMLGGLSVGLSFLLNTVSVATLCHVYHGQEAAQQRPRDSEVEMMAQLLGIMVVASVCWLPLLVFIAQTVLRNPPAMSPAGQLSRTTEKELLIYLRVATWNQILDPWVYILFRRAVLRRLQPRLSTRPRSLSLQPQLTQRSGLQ
Protocol: Changes in intracellular calcium were measured by using the fluorescent calcium sensitive dye Fluo-4NW (Invitrogen). After 6–8 hours of transient transfection of HEK293T cells using lipofectamine 2000, 100,000 viable cells were plated into each well of a 96-well tissue culture treated BD-falcon optilux plates. Cells mock transfected with vector pMT4 alone were used as a negative control. Following 24 hours of incubation at 37°C, the media was removed and cells were incubated with the dye Fluo-4NW (Invitrogen) containing 77 µg/ml of probenecid for 1 hour, as recommended by the manufacturer. […] Dose–response curves were generated and EC50 values calculated by nonlinear regression analysis using PRISM software version 5.0 (GraphPad Software Inc, San Diego, CA) after subtracting the responses of mock-transfected cells stimulated with same concentrations of agonists.
For estimation of calcium mobilized using the non-ratiometric calcium indicator Fluo-4NW, the ΔF/F ratio which approximately indicates calcium is calculated using the equation (19), ΔF/F = (F-Fbase)/(Fbase -B). Where F is the measured fluorescence intensity of Fluo-4NW, Fbase is the fluorescence intensity of Fluo-4NW in the cell before stimulation, and B is the background signal determined from areas adjacent to the cell. […]

[2] = biological target: T2, TP V110A mutant (Homo sapiens, UniProt P21731, V110A); test: Saturation radioligand binding with [3H] SQ 29,548, membranes; details: picomoles of TP per milligram of total membrane protein, mean ± S.E
T2 construct: expressed in transfected cells; HEK293T (calcium assays)
T2 sequence (P21731 1-343 V110A): T1 sequence (P21731 1-343 A160T) with V110A, T160A
Protocol: (§1) Amino acid substitutions were introduced into the synthetic TPα gene carried by the expression vector pMT4 as described previously, [29]. DNA sequences of all the mutated genes were verified by automated DNA sequencing. To minimize variations in transfection efficiency, the total amount transfected DNA was kept constant in all cases at 1 µg of DNA per 7×10^5 cells. The wild type TP or mutant genes were expressed in COS-1 cells using a DEAE-dextran based transient transfection method, [29], and in HEK293T cells using lipofectamine 2000 (Invitrogen). Except unless specified, the membranes prepared from COS-1 cells were used for radioligand binding assays and immunoblots. For intracellular calcium determination assays and immunofluorescence imaging, HEK293T cells were used. For transient transfections of HEK293T cells using the plasmid pMT4, lipofectamine 2000 (Invitrogen) mediated transfection was used as described by the manufacturer. Membranes were prepared using Buffers A and B and as described previously, [29]. The protein concentration in the resuspended membrane pellet was determined using a modified DC protein assay kit from Bio-Rad Laboratories (Hercules, CA).
(§2) These were carried out in Buffer C for 60 min at room temperature, using 2 to 20 µg of membrane protein and different concentrations of [^3H] […] Binding of [^3H] […] Competition binding assays were performed using 4 nM [^3H] […] Binding was terminated by filtering under vacuum on GF/A filters (Millipore). Filter-bound radioactivity was measured using a liquid scintillation counter. Equilibrium dissociation constants (Kd) were determined from saturation isotherms using PRISM software version 5.0 (GraphPad Software Inc, San Diego, CA, USA). The Ki values were calculated from the IC50, using the equation of Cheng and Prusoff by PRISM software version 5.0.

[3] = biological target: T1, TP A160T mutant (nsSNP variant); test: as above; details: picomoles of TP per milligram of total membrane protein, mean ± S.E
Protocol: as §1, §2

[4] = biological target: T3, TP F115A mutant (Homo sapiens, UniProt P21731, F115A); test: Intracellular calcium mobilization (Fluo-4NW) in transfected HEK293T cells; assay type: cell-based; design: expressed in transfected cells; transient, pMT4; details: read-out: EC50 of agonist U46619 (calcium mobilized), transiently transfected HEK293T cells, mean ± S.E
T3 sequence (P21731 1-343 F115A): T1 sequence (P21731 1-343 A160T) with F115A, T160A
Protocol: as §1, with “For transient transfections of HEK293T cells using the plasmid pMT4, lipofectamine 2000 (Invitrogen) mediated transfection was used as described by the manufacturer. Membranes were prepared using Buffers A and B and as described previously, [29].” left out
Changes in intracellular calcium were measured by using the fluorescent calcium sensitive dye Fluo-4NW (Invitrogen). […] Dose–response curves were generated and EC50 values calculated by nonlinear regression analysis using PRISM software version 5.0 (GraphPad Software Inc, San Diego, CA) after subtracting the responses of mock-transfected cells stimulated with same concentrations of agonists.

Effect on basal (agonist-independent) calcium mobilization [1] | Bmax, binding maximum of the ligand SQ 29,548 for the receptor [2] | Bmax, binding maximum of the ligand SQ 29,548 for the receptor [3] | EC50 [4] | SMILES
significant decrease in basal activity | 1.8 ± 0.3 pmol/mg | 1.8 ± 0.4 pmol/mg |  | O=C(O)CCC/C=C\C[C@@H]1[C@H](CNNC(=O)Nc2ccccc2)[C@H]2CC[C@@H]1O2 [SQ 29,548]
 |  |  | 2 ± 0.3 nM | CCCCC[C@H](O)/C=C/[C@@H]1[C@@H](C/C=C\CCCC(=O)O)[C@H]2CO[C@@H]1C2 [U46619]
